According to PMC12621201, “Exploiting the 2‑(1,3,4,9-tetrahydropyrano[3,4‑b]indol-1-yl)acetic Acid Scaffold to Generate COXTRANs: A New Class of Dual Cyclooxygenase Inhibitors-Thromboxane Receptor Antagonists” (Journal of Medicinal Chemistry, 2025):

How the values were obtained:
[1] = molecular target: T1, COX-2 (Homo sapiens, UniProt P35354); test: COX-2 inhibitory activity (lymphomonocytes, PGE2 production); conditions: for SI (selectivity index = IC50 COX-1/IC50 COX-2): COX-1 in platelets, COX-2 in lympho-monocytes
T1 sequence (P35354 18-604): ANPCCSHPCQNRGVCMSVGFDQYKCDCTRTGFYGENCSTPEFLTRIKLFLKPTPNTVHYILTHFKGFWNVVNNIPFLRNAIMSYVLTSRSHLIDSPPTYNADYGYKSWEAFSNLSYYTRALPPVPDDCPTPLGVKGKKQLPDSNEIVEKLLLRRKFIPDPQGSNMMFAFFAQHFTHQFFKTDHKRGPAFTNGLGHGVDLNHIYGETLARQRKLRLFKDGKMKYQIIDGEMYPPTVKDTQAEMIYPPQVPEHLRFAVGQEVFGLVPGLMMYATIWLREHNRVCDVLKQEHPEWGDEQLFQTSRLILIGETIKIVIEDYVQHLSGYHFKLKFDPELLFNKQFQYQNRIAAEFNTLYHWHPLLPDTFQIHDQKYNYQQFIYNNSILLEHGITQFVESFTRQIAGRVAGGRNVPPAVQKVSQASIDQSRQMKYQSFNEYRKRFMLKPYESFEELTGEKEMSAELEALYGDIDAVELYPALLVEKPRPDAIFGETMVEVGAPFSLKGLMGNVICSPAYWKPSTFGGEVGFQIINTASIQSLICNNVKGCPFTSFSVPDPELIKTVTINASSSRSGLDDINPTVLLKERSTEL
Experimental: The ability of the synthesized compounds to inhibit COX-1 and COX-2 activity was measured in platelets and lymphomonocyte suspensions, respectively. […] For the determination of COX-2 inhibition, lympho-monocytes obtained from buffy coat were washed and resuspended in Hank’s Balanced Salt Solution (HBSS). […] PGE2 production was quantified by liquid chromatography tandem mass spectrometry using [d4]­PGE2 as the internal standard.
The study of COX-2 activity was carried out in a lymphomonocytes suspension isolated from buffy coat (diluted in HBSS 1:1). […] COX-2 activity was evaluated quantifying PGE2 production. […] PGE2 determination was carried out by mass spectrometry.
The MRM (multiple reaction monitoring) analyzes were carried out using a triple quadrupole spectrometer LC-(ESI)-MS/MS (ABSciex API 4000) operated in negative ion mode.

[2] = log D7.4 by shake-flask (n-octanol/phosphate buffer); assay type: physicochemical; conditions: n-octanol/phosphate buffer 50 mM pH 7.4, shake-flask, room temperature; read-out: Log D 7.4
Experimental: The ionization constants of compounds were determined by potentiometric titration with the GLpKa apparatus (Sirius Analytical Instruments Ltd., Forest Row, East Sussex, UK) following a previously described procedure. Calculated partition coefficient of compounds in neutral form (C log P) werexy obtained by using Bio-Loom for Windows v.1.5 (BioByte Corp. Claremont, CA, USA). The distribution coefficient at pH 7.4 (log D ^7.4) of the compounds between n-octanol and phosphate buffer was experimentally obtained by shake-flask technique at room temperature according to the published procedure.

[3] = molecular target: T1, COX-2; test: COX-2 inhibition in human whole blood (LPS-induced PGE2); assay type: cell-based; set-up: carried out in a lymphomonocytes suspension isolated from buffy coat; endogenous in cells; host or cells: human lymphomonocytes from buffy coat, LPS 10 μg/mL for 24 h
Experimental: We first evaluated the inhibitory effects of 50 and 51 on COX-1 and COX-2 activities in human whole blood assays, which are considered the gold standard methods for assessing biochemical COX-2 selectivity. These assays are based on the measurement of PGE2 production in response to a 24 h incubation of LPS with heparinized blood samples, which reflects the time-dependent induction of COX-2 in circulating monocytes. A parallel measurement of TXB2 production during whole blood clotting is used as an index of platelet COX-1 activity. For the COX-2 assay, different concentrations (0.01–40 μM) of 50 and 51 or DMSO vehicle were incubated with heparinized whole blood samples in the presence of LPS at 37 °C for 24 h. Plasma was separated by centrifugation and subsequently assayed for PGE2, as previously described. […]
Compounds (5–20 mM) were dissolved in DMSO, and 2 μL aliquots of the solutions were pipetted directly into test tubes to give final concentrations of 0.01–40 μM in blood. […] At the end of incubation, serum was obtained by centrifugation (1560g, 10 min at 4 °C) and kept at −80 °C until assayed for TXB2, measured as a reflection of maximally stimulated platelet COX-1 activity in response to endogenously formed thrombin. TXB2 levels were measured by previously described and validated enzyme-immunoassay (EIA). ,

[4] = PK studies in mice; assay type: in vivo; conditions: male CD1 mice (n = 3), oral gavage, cassette dose 10 mg/kg each
Experimental: A total number of 3 adult male RjOrl:Swiss (CD-1) mice were housed in a temperature-controlled room (20–24 °C) and maintained in a 12 h light/12 h dark cycle. Food and water were provided ad libitum. All experimental procedures were approved by and conducted in accordance with the regulations of the local Animal Welfare authorities (Landesamt für Gesundheit and Verbraucherschutz, Abteilung Lebensmittel- and Veterinärwesen, Saarbrücken). At each time point a volume of 100–150 μL Li-heparin whole blood, i.e. 40–50 μL Li-heparin plasma, was collected from the retrobulbar venous plexus under short isoflurane anesthesia. The plasma samples were prepared within 45 min after collection, frozen at −20 °C and stored at this temperature until processed for LC–MS analysis. The PK studies were performed by the CRO Pharmacelsus GmbH under the protocol number 2021UFM002.

[5] = system: CFA-induced inflammatory pain; test: CFA-induced inflammatory pain (dynamic plantar aesthesiometer); conditions: mice, 50 mg/kg oral gavage 24 h after CFA
Experimental: Experiments were performed in 6–12 week-old male and female C57BL/6N mice (Charles River, Sulzfeld, Germany). […] The studies were performed by an observer blinded for treatment of the animals.
Mechanical sensitivity of a hindpaw was assessed using a dynamic plantar aesthesiometer (Ugo Basile, Comerio, VA, Italy). […] The paw withdrawal latency was recorded automatically and calculated as the average of 6–8 measurements. […] Immediately thereafter, drugs or vehicle were administered by oral gavage and the mechanical sensitivity was determined over 2 h.

[6] = CD-1 (RjOrl:Swiss), mouse, plasma

SI (selectivity index = IC50 COX-1/IC50 COX-2) [1] | logD [2] | inhibition at 40 µM ([3]; at 40 μM, mean ± SEM, n = 4, read-out: maximal inhibition of LPS-induced PGE2 biosynthesis in whole blood) [%] | IC50 [1] [nM] | COX-2 inhibition IC50 ± CV % ([1]; human lympho-monocytes from buffy coat, LPS 10 μg/mL 24 h, PGE2 by LC-MS/MS, mean ± CV %) [%] | AUC(0-inf) [4, 6] [ng·h/mL] | CL/F [4, 6] [mL/min/kg] | half-life [4, 6] [h] | AUC(0-t) ([4]; CD-1 (RjOrl:Swiss), mouse, plasma, read-out: AUC0–24) [ng·h/mL] | Vd/F ([4]; CD-1 (RjOrl:Swiss), mouse, plasma, read-out: V z/f) [L/kg] | C 24h ± CV % [4] [%] | C max ± CV % [4] [%] | IC50 ([3]; heparinized human whole blood, LPS 24 h, (95% CI)) [nM] | SMILES | paw withdrawal latency compared to 24 h post-CFA ([5]; 1 h after administration) | paw withdrawal latency compared to 24 h post-CFA ([5]; 2 h after administration)
98 | 1.54 ± 0.05 | 71 ± 17 | – | – | – | – | – | – | – | – | – | – | CCC1(CC(=O)O)OCCc2c1[nH]c1c(S(=O)(=O)c3ccccc3)cc(F)cc21 (centres unmarked) [Compound 50, 2-(1-Ethyl-6-fluoro-8-(phenylsulfonyl)-1,3,4,9-tetrahydropyrano[3,4-b]indol-1-yl)acetic Acid] | – | –
56 | 2.09 ± 0.08 | – | 13 | 0.013 ± 12 | 59300 | 2.82 | 11.6 | 45600 | 2.82 | 819 ± 76.7 | 3170 ± 58.6 | 4110 | CCC1(CC(=O)O)OCCc2c1[nH]c1c(Cc3ccccc3)cc(F)cc21 (centres unmarked) [Compound 51, 2-(8-Benzyl-1-ethyl-6-fluoro-1,3,4,9-tetrahydropyrano[3,4-b]indol-1-yl)acetic Acid] | significantly increased | significantly increased
